The data set in a line: Human HepG2 cell viability assay in 384 well format. Type of data set: toxicity, cell-based. On the set-up: dose 125 nL, time 70.5 hour; concentration not given beside the values. The following applies: HepG2 cells, read-out: Inhibition.
Turning to `Cc1ccc(Cl)cc1N1CCN(CC(=O)NCc2ccco2)CC1`, the cytotoxicity at 70.5 h is 7.45%. Regarding `CC(C)c1cc2c(s1)NC(c1ccccc1)NC2=O` (stereo unspecified), the cytotoxicity at 70.5 h was -12.1%.

Take `Cn1c(SCC(N)=O)nnc1-c1csc2c1CCCC2`: the cytotoxicity at 70.5 h is -9.11%. In the case of `CCOc1cc(C(=O)n2cc(C)cn2)cc(OCC)c1OCC`, the cytotoxicity at 70.5 h was determined as 1.34%. For `O=S(=O)(c1ccc(N2CCCCC2)c2nonc12)N1CCCCC1` the value was -11.2%; for `O=S(=O)(c1cc(F)ccc1F)n1cc(Cl)cn1`, -4.29%; for `NC(=O)c1c(-c2ccc(Cl)cc2Cl)csc1NC(=O)CCCC(=O)O`, 4.32%. Then `CCn1cc(S(=O)(=O)N2CCN(S(=O)(=O)c3ccc(Br)s3)CC2)cn1`, with -12%. Then `CCOc1ccc(C(=O)n2cccn2)cc1`, with -4.2%; and `CC(C)(C)NC(=O)N1CCN(Cc2cccnc2)CC1`, with -3.39%; and `Cc1ccc(NC(=O)N2CCN(Cc3ccccn3)CC2)cc1Cl`, with 30.4%. Take `Cc1c(Cl)cccc1NC(=O)N1CCN(Cc2ccccn2)CC1`: the cytotoxicity at 70.5 h is -3.15%.

Consider `Cn1cc(CNS(=O)(=O)c2cc(F)ccc2F)cn1`, for which the cytotoxicity at 70.5 h is -6.49%. In the case of `CCOC(=O)Cn1nnnc1-c1ccccc1`, the cytotoxicity at 70.5 h was -0.715%. For `CC(C)NC(=O)COc1ccc(-c2nc(C(C)C)no2)cc1` the value was -19.4%; for `Cc1ccc(NC(C)(C)c2nnnn2-c2ccc(Cl)cc2)c(C)c1`, 0.988%; for `CC1(C)CC2(CCO1)NC(=O)c1cc(Br)ccc1-n1nnnc12` (stereo unspecified), 1.03%. Then `Cc1cccc(-n2nnnc2C(C)(C)Nc2ccccc2C)c1`, with 0.855%.

`COc1ccc(-n2nnnc2C2(NCc3ccco3)CCCCC2)cc1`: the cytotoxicity at 70.5 h was -9.96%. For `CN(C)S(=O)(=O)N1CCCC(C)(c2ncc(C(N)=O)s2)C1` (stereo unspecified) the value was 5.78%. As for `Cc1nn(C)c(C)c1-c1cnc(CC2CCNCC2)cn1`, the cytotoxicity at 70.5 h was -4.79%. Consider `Cn1cc(CN2CCOC(c3cccc(-c4cccc(F)c4)n3)C2)cn1` (stereo unspecified), for which the cytotoxicity at 70.5 h is -4.34%. Take `Oc1cc(-c2cccs2)nc(C2CCCN(CC3=CCCOC3)C2)n1` (stereo unspecified): the cytotoxicity at 70.5 h is -9.88%.

Regarding `O=C(c1cc2c(s1)CCC2)N1CCCC(c2cnccn2)C1` (stereo unspecified), the cytotoxicity at 70.5 h was -17%. For `COc1ccc2[nH]cc(C(=O)N3C[C@@H](O)[C@H](N4CCOCC4)C3)c2c1`, the cytotoxicity at 70.5 h is -9.96%. For `O=C(NCc1ccccc1)C1CN(c2ccccn2)CCO1` (stereo unspecified) the value was -15.5%; for `Cc1cncc(C2CCCN2CCO)n1` (stereo unspecified), -9.94%. Turning to `CNCC(=O)N1CCC(c2cccc(Oc3ccccc3)n2)CC1`, the cytotoxicity at 70.5 h is -7.76%.

Turning to `c1cc(C2CCCN2CC2CC2)n[nH]1` (stereo unspecified), the cytotoxicity at 70.5 h is -9.13%. Then `c1ccc(CCN2CCCC2c2ccnc(Nc3ncccn3)n2)cc1` (stereo unspecified), with -5.57%; and `CCn1ccc(-c2cc(NCCCOc3ccccc3C)nc(C)n2)n1`, with -1.9%. Then `CCC(=O)N1CCCC1c1n[nH]cc1-c1ccccc1F` (stereo unspecified), with -6.39%; and `CC(=O)N1CCOC(c2c(C(=O)NCCN(C)C)sc3ccccc23)C1` (stereo unspecified), with -7.61%; and `CCCn1cc(C(=O)N2CCCC2(C)c2nc(C)cc(C)n2)cn1` (stereo unspecified), with -13.9%. In the case of `Cc1ccnn1CCNC(=O)C1CCN(S(=O)(=O)c2ccc(F)cc2)C1` (stereo unspecified), the cytotoxicity at 70.5 h turned out to be 6.47%. For `CCN1CCCC(O)(c2nc(C)c(CCOc3ccc(F)cc3)s2)CC1` (stereo unspecified) the value was 13.4%; for `CN(C)S(=O)(=O)N1CCC(c2ccncc2)CC1`, -10.2%; for `CNc1nc(C2CCCN(C(=O)C(C)C)C2)nc2c1CN(C)CC2` (stereo unspecified), 9.57%.

In the case of `CN(C)S(=O)(=O)N1CCC(c2ccncn2)CC1`, the cytotoxicity at 70.5 h was -11.3%. Regarding `Cc1nc(Nc2ncc(C)s2)cc(C2CCCN2S(C)(=O)=O)n1` (stereo unspecified), the cytotoxicity at 70.5 h was -13.7%. Then `CS(=O)(=O)N1CCCC1c1cccc(Nc2nccs2)n1` (stereo unspecified), with 28.9%. For `Cc1cnc2cc(C3CCN(C(=O)c4ccncc4)CC3)[nH]c2n1` the value was -12.8%; for `CC1(C(=O)NC2CCCC2)CN(c2cnccn2)CCO1` (stereo unspecified), -13.6%; for `COc1cccc([C@H]2CN(C(=O)c3ccccc3)[C@@H]3CCCN[C@H]23)c1`, 15.6%.

With `c1cnc(N2CCCC(c3cc4cccnc4[nH]3)C2)nc1` (stereo unspecified), the cytotoxicity at 70.5 h is -8.49%. As for `COCc1ccc(C(=O)N2CCC(c3cc4ncc(C)nc4[nH]3)C2)cc1` (stereo unspecified), the cytotoxicity at 70.5 h was -4.31%. Consider `c1cnc(N2CCC(c3cc4cccnc4[nH]3)CC2)nc1`, for which the cytotoxicity at 70.5 h was -5.37%. On to `O=C(c1cc[nH]n1)N1CCCC1c1cnccn1` (stereo unspecified), for which the cytotoxicity at 70.5 h is -10.5%. For `COCC(=O)N1CC(c2csc(NC(C)=O)n2)C1` the value was -3.83%; for `CNC(=O)c1cn[nH]c1C1CCN(Cc2sccc2C)C1` (stereo unspecified), -5.33%.

`CNC(=O)c1cn[nH]c1C1CCN(Cc2cccc(C)c2OC)C1` (stereo unspecified): the cytotoxicity at 70.5 h is -3.82%. For the compound `CN(C)c1nccc(C2CCN(C(=O)CO)CC2)n1`, the cytotoxicity at 70.5 h was found to be 13.9%. For `CC(=O)N1CCN(CCOc2ccc(F)cc2)CC(C(N)=O)C1` (stereo unspecified) the value was -9.44%; for `Cc1c(CN2C[C@@H](O)[C@H](Oc3cccc(F)c3)C2)cnn1C`, -10.7%.

On to `CC1(C(=O)N2CCN(C3CCCC3)CC2)CNCCO1` (stereo unspecified), for which the cytotoxicity at 70.5 h is -7.45%.

As to `O=C(O)c1ccccc1CN1CCC(c2ccnc3ccnn23)CC1`, the cytotoxicity at 70.5 h is -4.52%.

As for `COC(=O)[C@H]1CN(C(=O)c2cscn2)C[C@@H]1c1ccc(F)cc1`, the cytotoxicity at 70.5 h amounted to 0.296%.

Take `COc1ccc(CC(=O)NC(C)c2nc3cccnc3n2C(C)C)cc1` (stereo unspecified): the cytotoxicity at 70.5 h amounted to 2.45%. For `CCc1c(C)noc1-c1cnc(NC2CC2)nc1-c1cnc(C)cn1`, the cytotoxicity at 70.5 h was -7.43%.

As for `Oc1ccc(C2Nc3ccccc3C3=NCCCN32)cc1` (stereo unspecified), the cytotoxicity at 70.5 h was -2.33%. For `O=C(c1cc[nH]n1)N1CCCC1c1ccccn1` (stereo unspecified) the value was -4.38%; for `O=C(NC1CC1)C1(Cc2ccccc2-c2ccncc2)CCOCC1`, 7.42%; for `O=C(CCn1c(C(F)F)cc2cccnc21)NC1CC1`, -5.74%. Regarding `Cc1cc2c(=O)n3c(nc2s1)CCN(C(=O)c1nn(C)cc1Cl)CC3`, the cytotoxicity at 70.5 h is -4.02%. As to `CCn1cc(S(=O)(=O)NCC2(N3CCOCC3)CCCCC2)c(C)n1`, the cytotoxicity at 70.5 h was found to be 28.1%. Then `Cc1nn(C)cc1S(=O)(=O)NC1(CN2CCOCC2)CCCCC1`, with -3.14%. On to `Cc1cc(-c2cnc(C(C)C)nc2CN(C)C(=O)c2ccccn2)on1`, for which the cytotoxicity at 70.5 h is -6.43%.

As for `CCOCC(=O)N1CCC(c2cc3ncccc3c(O)n2)CC1`, the cytotoxicity at 70.5 h was -6.58%. Regarding `CC(C)(C)c1nnc(NCC(=O)N2CCc3sccc3C2)s1`, the cytotoxicity at 70.5 h is -10.5%. Take `COc1ccc(CCNC(=O)NCc2cccc(C(N)=O)c2)cc1OC`: the cytotoxicity at 70.5 h was -15%. Then `CC(C)(NC(=O)c1scnc1Cl)c1ccccc1`, with -12.8%. Regarding `CCCc1c(C(=O)N2CCN(Cc3ccccn3)CC2)cnn1C`, the cytotoxicity at 70.5 h was -14.7%. In the case of `CCCc1c(C(=O)N2CCN(c3cnccn3)CC2)cnn1C`, the cytotoxicity at 70.5 h was -14.4%.

With `CCN1CCN(C(=O)c2cc(F)cc3nc(C)c(C)nc23)CC1`, the cytotoxicity at 70.5 h is -12.2%. For `Cn1ccc(CS(=O)(=O)Cc2cccc(F)c2)cc1=O` the value was -11%.

As to `Cc1ccc(C)c(CS(=O)(=O)Cc2ccn(C)c(=O)c2)c1`, the cytotoxicity at 70.5 h was -7.9%. For the compound `N#Cc1cc(F)ccc1Cn1cncn1`, the cytotoxicity at 70.5 h is -9.13%. Then `COc1ccc(CNCCc2cccc(C(N)=O)c2)cc1C`, with 11.7%.

Consider `Cc1cn2c(n1)CCC(NC(=O)c1ccc(OCC3CC3)nc1)C2` (stereo unspecified), for which the cytotoxicity at 70.5 h was -3.71%.

On to `CC(C)c1nsc(N2CCn3c(nnc3-c3ccccc3)C2)n1`, for which the cytotoxicity at 70.5 h was -7.62%.

Turning to `O=C(Cc1cccc(F)c1F)NS(=O)(=O)c1ccc(Cl)cn1`, the cytotoxicity at 70.5 h is -6.06%. For `O=C(CNc1nc(C(F)(F)F)cs1)N1CCc2sccc2C1` the value was -8.73%. Then `FC(F)(F)CCN(Cc1ccon1)C1CCCC1`, with -7.02%; and `COc1cccc(CNCCc2cccc(C(N)=O)c2)c1`, with -8.65%. Regarding `CNc1nc(CS(=O)(=O)c2ccccc2)cs1`, the cytotoxicity at 70.5 h is -7.87%. In the case of `CCOCCN1CCN(CCc2ccc3c(c2)CCO3)CC1`, the cytotoxicity at 70.5 h amounted to 12.7%. For `NC(=O)CNC(c1ccccc1)c1ccccc1`, the cytotoxicity at 70.5 h amounted to 17.2%. Then `N#CC1(C(=O)N2CCOC(c3ccc(F)cc3)C2)CCCCC1` (stereo unspecified), with -9.88%; and `CN(C)S(=O)(=O)NC1CC(=O)N(c2ccccc2Cl)C1` (stereo unspecified), with -17.3%; and `COCC(=O)Nc1nnc2n(Cc3cccc(OC)c3)[nH]c(C)c1-2`, with -5.86%.

Take `CC(C)c1nnc2n1CCN(C(C(N)=O)c1ccc(F)cc1)C2` (stereo unspecified): the cytotoxicity at 70.5 h is -21.3%. Take `CC(C)(C)CNC(=O)c1ccc(C(=O)O)cc1`: the cytotoxicity at 70.5 h is -5.94%. As for `O=C(C1CCC1)N1C[C@@H](c2ccsc2)[C@@H]2CN(C3CCCC3)CC[C@@H]21`, the cytotoxicity at 70.5 h was -3.74%.

Consider `Cc1cc(N(C)C)nc(C2CCCNC2)n1` (stereo unspecified), for which the cytotoxicity at 70.5 h is -1.07%.

Regarding `CNC(=O)C1CNCCN1C(=O)c1ccc(C(F)(F)F)nc1C` (stereo unspecified), the cytotoxicity at 70.5 h is -5.69%.

For `CN1CCCc2cc(-c3cncn3CC(=O)NC(C)(C)C)ccc21`, the cytotoxicity at 70.5 h is -16.5%. On to `CCOC(=O)c1n[nH]cc1-c1cncn1CCn1nc(C)c(C)c1C`, for which the cytotoxicity at 70.5 h was -6.65%. Then `CCN1c2ccc(-c3cncn3CC(=O)NC(C)(C)C)cc2CC1C` (stereo unspecified), with -7.81%; and `Cc1cc(N(C)C)nc(C2CCCN2)n1` (stereo unspecified), with -3.78%. Consider `C=C(C)CN1CCN(Cc2cnc(-c3ccccc3C)nc2)CC1`, for which the cytotoxicity at 70.5 h was 23.9%. For `C=C(C)CN1CCN(Cc2cnc(-c3ccc(OC)cc3)nc2)CC1` the value was 9.18%.
